Experimental data: patent publication US12570694B2, “Peptides and pharmaceutical, nutraceutical or veterinary compositions for hair loss prevention and/or treatment” (VYTRUS BIOTECH, S.L., priority 2016, dated 2026)
Non-standard residues stand in square brackets, D forms with d. sY = N[C@@H](Cc1ccc(OS(=O)(=O)O)cc1)C(=O)O

How the values were obtained:
Format in all cases: cell-based
[1] = system: human dermal fibroblasts (HDF); experiment: Wound healing (scratch) assay on human dermal fibroblasts; conditions: FIG. 17; 5 μg/ml and 0.05 μg/ml; 5 days of treatment; triplicate mean; vs 0.1% FBS basal, 10% FBS and TGF-β1 positive controls
Description: In order to test the effect of the sulfaction state of the peptides on their activity, it is herewith provided as reference example a wound healing assay conducted onto human dermal fibroblasts (HDF).
Human dermal fibroblasts were seeded in a 24-well plate and were grown to confluence. A 2 mm width scratch was done on the culture monolayer. Then the test products in culture medium were added and the cicatrisation process was followed by means of phase contrast microscopy. With this aim, photographs were taken at initial of the test (T=0 h) before the scratching and after the treatment (at 12 h and at 72 h). Cicatrisation process was evaluated by quantifying wound area reduction at each time.
Data at the end of the test (5 days of treatment) are depicted in FIG. 17, wherein the wound healing potential is depicted as the Healed Area (in μm^2) for assayed peptide.
The results derive from a triplicate test. Values of cicatrised area (or % of cicatrisation) are the mean values.

[2] = system: human dermal fibroblasts (HDF); experiment: In vitro proliferation of human dermal fibroblasts (BrdU incorporation); conditions: FIGS. 6 and 7; 4Aa at 25, 12.5, 1.25 μg/ml, 5Aa at 1.25, 0.63, 0.25 μg/ml; basal control = 100%
Description: In order to further test the effects of the peptides of the invention in an additional setting, a proliferation assay was conducted onto human dermal fibroblasts (HDF).
Normal Human Dermal Fibroblasts (HDF) were obtained from foreskin samples, surpluses from surgery of young donors (0-3 years old) and stablished by using the standard method of explants growth and enzymic dissociation of proliferating cells. Cells were propagated and grown in Growth Medium (GM): Dulbecco's 1 g/L glucose medium, supplemented with 10% foetal bovine serum (FBS, PAA); 2 mM L-glutamine (Lonza); and antibiotics (100 μg/ml Penicillin and 100 U/ml of Streptomycin, Lonza). For routine subcultivation and propagation of the primary culture, cells were washed twice with PBS ([…] buffered saline, pH 7.4), harvested with trypsin—EDTA (Gibco) and counted in Neubauer chamber before its seeding in a new cell culture flask (Falcon, 75 cm2).
Test products were prepared at the defined final concentrations by its dilution in Maintenance Medium (Dulbecco's 1 g/L glucose medium, supplemented with 1% foetal bovine serum (FBS, PAA); 2 mM L-glutamine (Lonza); and antibiotics (100 μg/ml Penicillin and 100 U/ml of Streptomycin, Lonza), just before each application.
HFD proliferation was assessed determining the proliferation index (%). Cell DNA replication was quantified by means of incorporated bromodeoxiuridine (BrdU) into DNA of treated cells. […] Cells being divided incorporated BrdU that is further detected by means of antibodies and immunocytochemistry detection. […]
Data are depicted in FIG. 6 and FIG. 7, wherein it is shown the proliferation index (%) of HDF, calculated as the percentage of growing in relation to the basal control (non-treated HDF) which is accorded a 100% value of proliferation index. […]
Data are depicted in FIG. 16, wherein it is shown the proliferation index (%) of HDF, calculated as the percentage of growing in relation to the basal control (non-treated HDF) which is accorded a 100% value of proliferation index.

[3] = system: human hair follicle papilla cells (HFDPC); experiment: In vitro proliferation of hair follicle dermal papilla cells (BrdU incorporation); conditions: FIGS. 2 and 3; peptides with or without end-terminal modifications at 5.86, 2.93, 1.46 μg/ml; basal control = 100%
Description: In order to test the effects of the cell-free supernatants, as well as of the peptides of the invention, a proliferation assay was conducted onto human hair follicle papilla cells (CELL APPLICATIONS, INC; Normal human hair follicles from temporal scalp. Single donor: Ref. 602-05a. Lot. 2092.).
The culture media was a Papilla Cell Basal Medium supplemented with the Growth Supplements kit (Relative composition: Fetal bovine serum, growth factors and antibiotics. Application: 6% v/v).
HFDPC proliferation was assessed determining the proliferation index (%). Cell DNA replication was quantified by means of incorporated bromodeoxiuridine (BrdU) into DNA of treated cells. BrdU assay allows measuring cell proliferation based on cell capability of incorporating BrdU during S-phase of the cell cycle. Cells being divided incorporated BrdU that is further detected by means of antibodies and immunocytochemistry detection.
Cells were seeded at confluence in a 96-well plate. After stabilization and synchronization of cell cultures the tested products were added (at the final concentration indicated in Table 1 of Examples. After that, BrdU was added to cultures and HFDPC were incubated at 37° C. until complete BrdU incorporation. BrdU amounts were proportional to the number of cell divisions and thus to the growth of the treated culture.
Data are depicted in FIG. 1, FIG. 2 and FIG. 3, wherein it is shown the proliferation index (%) of HFDPC, calculated as the percentage of growing in relation to the basal control (non-treated HFDPC) which is accorded a 100% value of proliferation index.

Row | Substance | wound healing potential, Healed Area [1] | proliferation index of HDF [2] | proliferation index of HFDPC [3]
1 | CH3—C(O)—Xaa1IYT-NH2 (Ac-[sY]IYT-NH2; SMILES CC[C@H](C)[C@H](NC(=O)[C@H](Cc1ccc(OS(=O)(=O)O)cc1)NC(C)=O)C(=O)N[C@@H](Cc1ccc(O)cc1)C(=O)N[C@H](C(N)=O)[C@@H](C)O) [SEQ ID NO: 2, Xaa1 is a tyrosine residue with the side-chain hydroxyl group replaced by a radical —OSO3H] | have the same activity as the 4Aa non-sulfated peptide | – | –
2 | CH3—C(O)—YIXaa2T-NH2 (Ac-YI[sY]T-NH2; SMILES CC[C@H](C)[C@H](NC(=O)[C@H](Cc1ccc(O)cc1)NC(C)=O)C(=O)N[C@@H](Cc1ccc(OS(=O)(=O)O)cc1)C(=O)N[C@H](C(N)=O)[C@@H](C)O) [SEQ ID NO: 3, Xaa2 is a tyrosine residue with the side-chain hydroxyl group replaced by a radical —OSO3H] | have the same activity as the 4Aa non-sulfated peptide | – | –
3 | CH3—C(O)—YIYTQ-NH2 (Ac-YIYTQ-NH2) [SEQ ID NO: 7] | – | can promote cell proliferation of HDF | can promote cell proliferation
